Measurements: patent US7053090B2, “Triazaspiro[5.5]undecane derivatives and drugs containing the same as the active ingredient” (Ono Pharmaceutical Co., Ltd., priority 2001, dated 2006)
Structures can show the parent of a compound that is named as a salt.

Molecular target: T1, human CCR5 (Homo sapiens, UniProt P51681)
T1 construct: expressed in transfected cells; host or cells: CHO-dhfr(-) cells stably transfected with pEF-BOS-bsr/hCCR5
Assay: Inhibition test on the binding of RANTES to CCR5 (RANTES-induced transient increase of Ca ion)
Type: cell-based
Settings: human CCR5 stably over-expressing CHO cell; recombinant human RANTES 10 nM; intracellular Ca2+ transient increase
Procedure: (1) Isolation of Human CCR5 Gene
Human placental cDNA was prepared using Marathon cDNA amplification kit (Clontech). PCR primers hCCR5Xbal-F1: 5′-[…]-3′ (SEQ ID NO:1) and hCCR5Xbal-R1: 5′-[…]-3′ (SEQ ID NO:2) were designed based on the sequence of GenBank U54994.
Using the human placental cDNA as the template and using Ex Taq (Takara), PCR reaction (2 minutes at 95° C.→(30 seconds at 95° C., 45 seconds at 60° C., 1 minute at 72° C.)×35 times) was carried out. The thus amplified PCR product was subjected to a 1% agarose gel electrophoresis, purified using QIAquick Gel Extraction Kit (QUIAGEN) and then digested with a restriction enzyme Xbal. The digested fragments were ligated to an expression vector pEF-BOS-bsr using DNA Ligation Kit Ver. […]
The thus established human CCR5 stably over-expressing CHO cell (CCR5/CHO cell) was suspended in Ham's F-12 medium containing FBS (10%) and dispensed in […] portions into a 96 well plate. […] Transient increase in the intracellular Ca^2+ concentration induced by the human RANTES was measured using a Ca^2+ detector for 96 well use (Hamamatsu Photonics), and inhibition ratio (%) of the test compound was calculated by the following calculation formula. Inhibition ratio=(Ec−Ea)/Ec×100 • Ec: measured value of Ca^2+ transient increase by RANTES • Ea: measured value of Ca^2+ transient increase by RANTES when a test compound was added.

T1 sequence (P51681 whole entry): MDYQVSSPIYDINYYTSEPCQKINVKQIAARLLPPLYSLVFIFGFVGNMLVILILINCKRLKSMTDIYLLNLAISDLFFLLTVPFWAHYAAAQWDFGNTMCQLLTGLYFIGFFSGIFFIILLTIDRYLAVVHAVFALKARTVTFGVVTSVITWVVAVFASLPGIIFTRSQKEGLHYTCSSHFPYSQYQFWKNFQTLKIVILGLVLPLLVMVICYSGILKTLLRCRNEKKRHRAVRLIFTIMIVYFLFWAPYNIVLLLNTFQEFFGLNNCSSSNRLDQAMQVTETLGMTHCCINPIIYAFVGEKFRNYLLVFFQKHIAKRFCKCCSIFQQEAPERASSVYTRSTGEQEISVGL

| IC50 | Structure (SMILES) |
| --- | --- |
| 0.37 µM | CCCCN1C(=O)[C@H]([C@@H](O)C(C)C)NC(=O)C12CCN(Cc1ccc(Oc3ccccc3)nc1)CC2 [Example 3, (3S)-1-butyl-2,5-dioxo-3-((1S)-1-hydroxy-2-methylpropyl)-9-(6-phenyloxypyridin-3-ylmethyl)-1,4,9-triazaspiro[5.5]undecane.2hydrochloride] |
| 0.027 µM | CCCCN1C(=O)[C@@H]([C@H](O)C(C)C)NC(=O)C12CCN(Cc1ccc(Oc3ccccc3)nc1)CC2 [Example 2, (3R)-1-butyl-2,5-dioxo-3-((1R)-1-hydroxy-2-methylpropyl)-9-(6-phenyloxypyridin-3-ylmethyl)-1,4,9-triazaspiro[5.5]undecane.2hydrochloride] |
